Measured values from patent publication US20110144069A1, “COMPOUNDS FOR TREATING VIRAL INFECTIONS” (priority 2006, published 2011).

Experiments:
[1] = test system: mock-infected MT-4 cells; experiment: Compound toxicity in mock-infected cells (WST-1 assay); assay type: cell-based; settings: toxicity measure, host cells; read-out: TC50 (concentration of compound that results in death of 50% of the host cells)
Experimental: (§1) The HTLV-1 transformed T cell line, MT-4, is highly susceptible to HIV-1 infection. Anti-HIV-1 agents were evaluated in this target cell line by protection from the HIV-induced cytopathic effect. In this assay, viability of both HIV-1 and mock-infected cells was assessed in a colorimetric assay that monitors the ability of metabolically-active cells to reduce the tetrazolium salt WST-1. Cytoprotection by antiviral compounds is indicated by the positive readout of increased WST-1 cleavage.
(§2) Briefly, exponentially growing MT-4 cells were mock-infected or batch-infected with the HIV-1 laboratory strain, NL4-3, at a multiplicity of infection of 0.0005. Following a two hour infection, the cells were washed to remove unbound virus and plated in the presence of increasing concentrations of compound. After four days incubation, cytoprotection in the infected cells and compound toxicity in mock-infected cells were analyzed using the WST-1 assay.

[2] = test system: HIV-1 laboratory strain, NL4-3; experiment: MT-4 Cytoprotection Assay (protection from HIV-induced cytopathic effect, WST-1); assay type: cell-based; settings: Human immunodeficiency virus 1, NL43; representative compounds; read-out: EC50 of less than about 100 nm
Experimental: MT-4 Cytoprotection Assay
as §1, §2

Row | Compound | CC50 [1] [µM] | EC50 [2] [µM]
1 | C=C(C)[C@@H]1CC[C@]2(C(=O)NCc3ccccc3C(=O)O)CC[C@]3(C)[C@H](CC[C@@H]4[C@@]5(C)CC[C@H](OC(=O)CC(C)(C)C(=O)O)C(C)(C)[C@@H]5CC[C@]43C)[C@@H]12 [Compound 73] | ~6.3 | 
2 | CC(C)[C@@H]1CC[C@]2(C(=O)NCCC3CCCCC3)CC[C@]3(C)[C@H](CC[C@@H]4[C@@]5(C)CC[C@H](OC(=O)CC(C)(C)C(=O)O)C(C)(C)[C@@H]5CC[C@]43C)[C@@H]12 [Compound 124] |  | < 0.1
3 | C=C(C)[C@@H]1CC[C@]2(C(=O)NCc3ccc(C(=O)O)cc3)CC[C@]3(C)[C@H](CC[C@@H]4[C@@]5(C)CC[C@H](OC(=O)CC(C)(C)C(=O)O)C(C)(C)[C@@H]5CC[C@]43C)[C@@H]12 [Compound 71] | ~7.7 | 
